Like-named read-outs stand apart in the source and are kept apart here.
Test system: patients of the REDUCE-IT and earlier EPA placebo-controlled trials
Format: in vivo, human
Conditions: R-I
[1] = Bilirubin shift: normal to high (Day 120)
[2] = Bilirubin shift: normal to high (Day 360)
[3] = Bilirubin shift: normal to high (Day 720)
[4] = Bilirubin shift: normal to high (Day 1080)
[5] = Bilirubin shift: normal to high (Day 1440)
[6] = Bilirubin shift: normal to high (Day 1800)

SMILES: CC/C=C\C/C=C\C/C=C\C/C=C\C/C=C\CCCC(=O)OCC [icosapent ethyl, eicosapentaenoic acid ethyl ester]
- Risk Ratio (95% CI): ALP shift: normal to high (Day 1080): 0.395 (0.280 to 0.528) 4
- Risk Ratio (95% CI): ALP shift: normal to high (Day 1440): 0.406 (0.287 to 0.575) 3
- Risk Ratio (95% CI): ALP shift: normal to high (Day 1800): 0.439 (0.280 to 0.688) 3
- Risk Ratio (95% CI): ALP shift: normal to low (Day 120): 3.341 (1.343 to 8.311) −4
- Risk Ratio (95% CI): ALP shift: normal to low (Day 360): 2.394 (0.994 to 5.767) −3
- Risk Ratio (95% CI): ALP shift: normal to low (Day 720): 2.783 (1.178 to 6.572) −4
- Risk Ratio (95% CI): ALP shift: normal to low (Day 1080): 1.938 (0.831 to 4.522) −3
- Risk Ratio (95% CI): ALP shift: normal to low (Day 1440): 1.199 (0.562 to 2.556) −1
- Risk Ratio (95% CI): Albumin high (Day 120): 2.263 (1.388 to 3.689) −3
- Risk Ratio (95% CI): Albumin high (Day 360): 1.901 (1.217 to 2.969) −3
- Risk Ratio (95% CI): Albumin high (Day 720): 1.365 (0.975 to 1.911) −2
- Risk Ratio (95% CI): Albumin high (Day 1080): 1.449 (0.993 to 2.115) −2
- Risk Ratio (95% CI): Albumin high (Day 1440): 1.540 (1.001 to 2.369) −2
- Risk Ratio (95% CI): Albumin shift: normal to high (Day 120): 3.055 (1.709 to 5.461) −4
- Risk Ratio (95% CI): Albumin shift: normal to high (Day 360): 2.364 (1.388 to 4.027) −3
- Risk Ratio (95% CI): Albumin shift: normal to high (Day 720): 1.475 (1.028 to 2.116) −2
- Risk Ratio (95% CI): Albumin shift: normal to high (Day 1080): 1.257 (0.848 to 1.864) −2
- Risk Ratio (95% CI): Albumin shift: normal to high (Day 1440): 1.531 (0.974 to 2.408) −2
- Risk Ratio (95% CI): Bilirubin >1x ULN to 2x ULN: 3.157 (2.392 to 4.168) −4
- Risk Ratio (95% CI): Bilirubin high (Day 120): 4.288 (2.849 to 6.454) −4
- Risk Ratio (95% CI): Bilirubin high (Day 360): 3.263 (2.203 to 4.832) −4
- Risk Ratio (95% CI): Bilirubin high (Day 720): 5.052 (3.174 to 8.039) −5
- Risk Ratio (95% CI): Bilirubin high (Day 1080): 2.430 (1.683 to 3.508) −3
- Risk Ratio (95% CI): Bilirubin high (Day 1440): 3.543 (2.243 to 5.596) −4
- Risk Ratio (95% CI): Bilirubin high (Day 1800): 2.670 (1.569 to 4.545) −4
- Risk Ratio (95% CI): Bilirubin shift: normal to high (Day 120): 5.106 (2.754 to 9.467) −5
- Risk Ratio (95% CI): Bilirubin shift: normal to high (Day 360): 5.431 (2.773 to 10.636) −5
- Risk Ratio (95% CI): Bilirubin shift: normal to high (Day 720): 4.803 (2.516 to 9.168) −4
- Risk Ratio (95% CI): Bilirubin shift: normal to high (Day 1080): 2.235 (1.374 to 3.636) −3
- Risk Ratio (95% CI): Bilirubin shift: normal to high (Day 1440): 5.445 (2.687 to 11.034) −5
- Risk Ratio (95% CI): Bilirubin shift: normal to high (Day 1800): 2.556 (1.242 to 5.259) −4
- Risk Ratio (95% CI): Calcium high (Day 120): 0.799 (0.517 to 1.236) 2
- Risk Ratio (95% CI): Calcium high (Day 360): 0.915 (0.593 to 1.412) 1
- Risk Ratio (95% CI): Calcium high (Day 720): 0.767 (0.491 to 1.200) 2
- Risk Ratio (95% CI): Calcium low (Day 120): 1.399 (0.444 to 4.404) −2
- Risk Ratio (95% CI): Calcium low (Day 360): 9.856 (1.262 to 76.953) −5
- Risk Ratio (95% CI): Calcium low (Day 720): 2.911 (0.789 to 10.744) −4
- Risk Ratio (95% CI): DBP High (≥100 mmHg): 1.121 (0.931 to 1.350) −1
- Risk Ratio (95% CI): DBP High and Rose ≥10 mmHg: 1.092 (0.888 to 1.344) −1
- Risk Ratio (95% CI): DBP Low (≤50 mmHG): 1.136 (0.732 to 1.763) −1
- Risk Ratio (95% CI): DBP Low and dropped ≥10 mmHg: 1.030 (0.644 to 1.648) −1
- Risk Ratio (95% CI): DBP dropped ≥10 mmHG: 1.087 (1.028 to 1.150) −1
- Risk Ratio (95% CI): DBP rose ≥10 mmHg: 0.983 (0.927 to 1.041) 1
- Risk Ratio (95% CI): High platelets (Day 720): 1.503 (1.007 to 2.242) −2
- Risk Ratio (95% CI): Low platelets (Day 360): 0.366 (0.253 to 0.530) 4
- Risk Ratio (95% CI): Low platelets (Day 720): 0.799 (0.608 to 1.051) 2
- Risk Ratio (95% CI): Low platelets (Day 1080): 0.688 (0.512 to 0.925) 2
- Risk Ratio (95% CI): Platelet count: PCS Low <100 × 10^3/uL: 0.442 (0.258 to 0.758) 3
- Risk Ratio (95% CI): SBP High (≥160 mmHg): 0.912 (0.833 to 1.000) 1
- Risk Ratio (95% CI): SBP High and rose ≥20 mmHg: 0.908 (0.805 to 1.023) 1
- Risk Ratio (95% CI): SBP Low (≤90 mmHg): 1.819 (1.093 to 3.055) −3
- Risk Ratio (95% CI): SBP dropped ≥20 mmHg: 1.117 (1.033 to 1.208) −1
- Risk Ratio (95% CI): SBP low and dropped ≥20 mmHg: 1.422 (0.792 to 2.553) −2
- Risk Ratio (95% CI): SBP rose ≥20 mmHg: 0.976 (0.912 to 1.045) 1
- Risk Ratio (95% CI): Urate high (Day 120): 1.398 (1.246 to 1.568) −2
- Risk Ratio (95% CI): Urate high (Day 360): 1.350 (1.197 to 1.523) −2
- Risk Ratio (95% CI): Urate high (Day 720): 1.323 (1.162 to 1.506) −2
- Risk Ratio (95% CI): Urate high (Day 1080): 1.102 (0.961 to 1.263) −1
- Risk Ratio (95% CI): Urate high (Day 1440): 1.109 (0.956 to 1.286) −1
- Risk Ratio (95% CI): Urate high (Day 1800): 1.084 (0.883 to 1.331) −1
- Risk Ratio (95% CI): Urate shift: normal to high (Day 120): 1.689 (1.369 to 2.084) −3
- Risk Ratio (95% CI): Urate shift: normal to high (Day 360): 1.674 (1.363 to 2.056) −3
- Risk Ratio (95% CI): Urate shift: normal to high (Day 720): 1.513 (1.227 to 1.865) −2
- Risk Ratio (95% CI): Urate shift: normal to high (Day 1080): 1.118 (0.910 to 1.374) −1
- Risk Ratio (95% CI): Urate shift: normal to high (Day 1440): 1.079 (0.879 to 1.324) −1
- Risk Ratio (95% CI): Urate shift: normal to high (Day 1800): 1.029 (0.782 to 1.355) −1
- Risk Ratio (95% CI): Urate shift: normal to low (Day 120): 1.654 (0.396 to 6.915) −2
- Risk Ratio (95% CI): Urate shift: normal to low (Day 360): 0.733 (0.255 to 2.110) 2
- Risk Ratio (95% CI): Urate shift: normal to low (Day 720): 0.361 (0.096 to 1.360) 4
- Risk Ratio (95% CI): Urate shift: normal to low (Day 1080): 0.474 (0.119 to 1.893) 3
- Risk Ratio (95% CI): Urate shift: normal to low (Day 1440): 0.210 (0.046 to 0.973) 4
- Risk Ratio (95% CI): Uric acid PCS High >7.5 mg/dL (Women): 1.180 (0.974 to 1.429) −1
- Risk Ratio (95% CI): Uric acid PCS High >8.0 mg/dL (Men): 1.313 (1.183 to 1.458) −2
- Risk Ratio (95% CI): Uric acid PCS Low <1.9 mg/dL (Women): 1.000 (0.063 to 15.986) −1
- Risk Ratio (95% CI): Uric acid PCS Low <2.5 mg/dL (Men): 0.650 (0.324 to 1.305) 2
- ARR (Bilirubin >1x ULN to 2x ULN): 3.5%
- NNT (Bilirubin >1x ULN to 2x ULN): −29
- Risk Ratio (95% CI) (Bilirubin >1x ULN to 2x ULN): 3.157 (2.392 to 4.168) −4
- ARR (Bilirubin >2x ULN to 3x ULN): 0.2%
- NNT (Bilirubin >2x ULN to 3x ULN): −497
- Risk Ratio (95% CI) (Bilirubin >2x ULN to 3x ULN): 3.668 (1.024 to 13.136) −4
- ARR (Bilirubin high (Day 120)): 2.4%
- NNT (Bilirubin high (Day 120)): −42
- Risk Ratio (95% CI) (Bilirubin high (Day 120)): 4.288 (2.849 to 6.454) −4
- ARR (Bilirubin high (Day 360)): 2.0%
- NNT (Bilirubin high (Day 360)): −50
- Risk Ratio (95% CI) (Bilirubin high (Day 360)): 3.263 (2.203 to 4.832) −4
- ARR (Bilirubin high (Day 720)): 2.6%
- NNT (Bilirubin high (Day 720)): −38
- Risk Ratio (95% CI) (Bilirubin high (Day 720)): 5.052 (3.174 to 8.039) −5
- ARR (Bilirubin high (Day 1080)): 2.0%
- NNT (Bilirubin high (Day 1080)): −50
- Risk Ratio (95% CI) (Bilirubin high (Day 1080)): 2.430 (1.683 to 3.508) −3
- ARR (Bilirubin high (Day 1440)): 2.5%
- NNT (Bilirubin high (Day 1440)): −40
- Risk Ratio (95% CI) (Bilirubin high (Day 1440)): 3.543 (2.243 to 5.596) −4
- ARR (Bilirubin high (Day 1800)): 2.3%
- NNT (Bilirubin high (Day 1800)): −43
- Risk Ratio (95% CI) (Bilirubin high (Day 1800)): 2.670 (1.569 to 4.545) −4
- ARR [1]: 1.3%
- NNT [1]: −77
- Risk Ratio (95% CI) [1]: 5.106 (2.754 to 9.467) −5
- ARR [2]: 1.3%
- NNT [2]: −80
- Risk Ratio (95% CI) [2]: 5.431 (2.773 to 10.636) −5
- ARR [3]: 1.3%
- NNT [3]: −76
- Risk Ratio (95% CI) [3]: 4.803 (2.516 to 9.168) −4
- ARR [4]: 1.0%
- NNT [4]: −95
- Risk Ratio (95% CI) [4]: 2.235 (1.374 to 3.636) −3
- ARR [5]: 1.8%
- NNT [5]: −57
- Risk Ratio (95% CI) [5]: 5.445 (2.687 to 11.034) −5
- ARR [6]: 1.2%
- NNT [6]: −81
- Risk Ratio (95% CI) [6]: 2.556 (1.242 to 5.259) −4
- Placebo-Adjusted % Change (Erythrocytes (Day 120)): +.72%
- Placebo-Adjusted % Change (Erythrocytes (Day 360)): +.26%
- Placebo-Adjusted % Change (Erythrocytes (Day 720)): +.29%
- Placebo-Adjusted % Change (Erythrocytes (Day 1080)): +.43%
- Placebo-Adjusted % Change (Erythrocytes (Day 1440)): +.66%
- ARR (Erythrocytes low (Day 120)): −1.3%
- NNT (Erythrocytes low (Day 120)): 77
- Risk Ratio (95% CI) (Erythrocytes low (Day 120)): 0.814 (0.685 to 0.968) 1
- ARR (Erythrocytes low (Day 360)): −0.4%
- NNT (Erythrocytes low (Day 360)): 223
- Risk Ratio (95% CI) (Erythrocytes low (Day 360)): 0.932 (0.781 to 1.113) 1
- ARR (Erythrocytes low (Day 720)): −0.4%
- NNT (Erythrocytes low (Day 720)): 251
- Risk Ratio (95% CI) (Erythrocytes low (Day 720)): 0.940 (0.779 to 1.133) 1
- ARR (Erythrocytes low (Day 1080)): −1.7%
- NNT (Erythrocytes low (Day 1080)): 60
- Risk Ratio (95% CI) (Erythrocytes low (Day 1080)): 0.781 (0.642 to 0.950) 2
- ARR (Erythrocytes low (Day 1440)): −0.8%
- NNT (Erythrocytes low (Day 1440)): 120
- Risk Ratio (95% CI) (Erythrocytes low (Day 1440)): 0.888 (0.720 to 1.093) 1
- ARR (Erythrocytes low (Day 1800)): −0.2%
- NNT (Erythrocytes low (Day 1800)): 485
- Risk Ratio (95% CI) (Erythrocytes low (Day 1800)): 0.975 (0.756 to 1.258) 1
- Placebo-Adjusted % Change (Hematocrit (Day 120)): +.42%
